Earlier results in patent US20250002523A1, “RUBUSOSIDE GLUCOSIDES” (SYMRISE AG, priority 2021, published 2025).

Conditions: reported in the background section

Structure (SMILES): C=C1C[C@@]23CC[C@H]4[C@@](C)(CCC[C@@]4(C)C(=O)O[C@@H]4O[C@H](CO)[C@@H](O)[C@H](O)[C@H]4O)[C@@H]2CC[C@]1(O[C@@H]1O[C@H](CO)[C@@H](O)[C@H](O)[C@H]1O)C3 [Rubusoside]
- sweet taste impression relative to sucrose: 200 times as strong as sucrose
